The subject of test [1] is mice. Kind of test: T-maze Continuous Alternation Task (T-CAT), scopolamine-induced cognitive impairment. The conditions noted are these: mouse, dosed orally at 10 mg/kg, scopolamine-induced disruption of spontaneous alternation. Format: in vivo. The text has this: The T-maze Continuous Alternation Task (T-CAT) measures spontaneous alternation, which is the innate tendency of mice to alternate free choices in a T-maze over a series of successive runs. This sequential procedure relies on working memory and is sensitive to various pharmacological manipulations affecting memory processes.
The T-maze apparatus is made of gray Plexiglas with a main stem (55 cm long×10 cm wide×25 cm high) and two arms (30 cm long×10 cm wide×25 cm high) positioned at 90 degree angle relative to the main stem. A start box (15 cm long×10 cm wide) is separated from the main stem by a sliding door. Sliding doors are also provided to close specific arms during the forced-choice alternation task.
The experimental protocol consists of one single session, which starts with 1 “forced-choice” trial, followed by 14 “free-choice” trials. In the first “forced-choice” trial, the animal is confined for 5 s in the start arm and then it is released while either the left or right goal arm is blocked by a sliding door. The animal will negotiate the maze, eventually enter the open goal arm, and return to the start position. Immediately after the return to the start position, the left or right goal door is opened and the animal is allowed to choose freely between the left and right goal arm (“free choice” trials). The animal is considered to have entered an arm when it places four paws in the arm. A session is terminated and the animal is removed from the maze as soon as 14 free-choice trials have been performed or 10 minutes have elapsed, whichever event occurs first. The percentage of alternation over the 14 free-choice trials is determined for each mouse and is used as an index of working memory performance. This percentage is defined as entry in a different arm of the T-maze over successive visits (i.e., left-right-left-right, etc).
Scopolamine administered 20 minutes prior the initiation of the T-maze session is used to induce disruption in the spontaneous alternation of mice. Test compounds are administered 60 minutes prior the start of the T-maze session in order to evaluate their ability to reverse the scopolamine effect.
The apparatus is cleaned between each animal using alcohol (70°). Urine and faeces are removed from the maze. During the trials, animal handling and the visibility of the operator are minimized as much as possible.
The compounds were dosed orally at 10 mg/kg.

For test [2], the target named is T1, rat α7 nAChRs (Rattus norvegicus, UniProt Q05941).
T1 construct: expressed in transfected cells; host or cells: GH4C1 (rat pituitary cell line) stably expressing α7 nAChR
Kind of test: Automated planar patch clamp (Patchliner) for α7 nAChR positive allosteric modulation. Format: cell-based. Details: key to Type I or Type II: I: Type 1 predominately affects the peak current; Type II modulators affect the peak current and also delay the desensitization of the receptor. The conditions noted are these: for Type I or Type II: modulator type based on the electrophysiology trace; for activation at 3 µM: GH4-C1, 3 μM compound in the presence of acetylcholine, GH4C1 cells expressing rat α7 nAChRs, relative to control ACh response, read-out: Peak potentiation at 3 μM compound. Here is the method: Compounds of the invention may be evaluated by electrophysiology using a Patchliner® (Nanion Technologies GmbH, Germany), an automated planar patch-clamp platform of medium throughput was used as a first step in electrophysiological assessment of α7 nAChR positive allosteric modulators (PAMs).
Briefly, intracellular (KCl—50 mM, NaCl—10 mM, KF—60 mM, EGTA—20 mM, HEPES—10 mM, pH—7.2, 285 mOsmol) and extracellular (NaCl—140 mM, KCl—4 mM, CaCl2-2 mM, MgCl2—1 mM, HEPES—10 mM, D-Glucose—5 mM, pH—7.4, 298 mOsmol) solutions were automatically pipetted onto NPC-16 chip (medium resistance ˜2.5-2.6 MΩ). Suspension of GH4C1 cells expressing rat α7 nAChRs was introduced in 4 wells of a medium resistance chip and suction was applied to attract cells in the holes. The extracellular solution was subsequently exchanged to high calcium solution (NaCl—80 mM, KCl—3 mM, CaCl2—45 mM, HEPES—10 mM, pH—7.4, 298 mOsmol) followed by gigaohm seal formation and obtaining whole-cell configuration. The rest of protocol was carried out in the high-calcium recording solution. Holding potential was −70 mV throughout the protocol. A control response to 60 or 100 μM of ACh was obtained first. Next, a cell was pre-incubated with compound of interest at 3 μM for ˜30 s after which the compound was co-applied with acetylcholine.
Amplitude of the responses was measured in HEKA Patchmaster software (HEKA Elektronik, Germany) and percentage of potentiation calculated. Recording was repeated […] a minimum of two replicates had been obtained per compound.
Compounds shown in Table 1 were evaluated by automated planar patch clamp on the Patchliner® as described in Example P2.1. […] The compounds are designated either as Type I or Type II modulators based on the electrophysiology trace. Type 1 predominately affects the peak current. Type II modulators affect the peak current and also delay the desensitization of the receptor.

The values below come from patent publication US9593096B2, “α7 nicotinic acetylcholine receptor modulators and uses thereof-III” (Merck Sharp & Dohme Corp., priority 2013, dated 2017).

T1 sequence (Q05941 23-502): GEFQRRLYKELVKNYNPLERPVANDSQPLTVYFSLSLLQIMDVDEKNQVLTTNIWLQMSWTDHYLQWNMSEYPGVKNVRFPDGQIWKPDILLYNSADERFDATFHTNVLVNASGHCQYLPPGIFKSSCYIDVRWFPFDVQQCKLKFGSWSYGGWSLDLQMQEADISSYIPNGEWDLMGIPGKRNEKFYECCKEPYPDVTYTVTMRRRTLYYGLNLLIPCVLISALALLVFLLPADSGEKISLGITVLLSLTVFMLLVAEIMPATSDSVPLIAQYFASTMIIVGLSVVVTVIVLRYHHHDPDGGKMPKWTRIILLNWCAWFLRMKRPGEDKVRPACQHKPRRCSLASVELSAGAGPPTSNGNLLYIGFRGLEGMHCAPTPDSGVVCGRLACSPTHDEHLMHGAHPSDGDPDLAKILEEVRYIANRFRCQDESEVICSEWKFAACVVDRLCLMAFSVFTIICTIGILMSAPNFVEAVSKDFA

Take `CCn1cc(C(=O)Nc2cncc(F)c2)c2cc(F)ccc21` [Example 1, 1-ethyl-5-fluoro-N-(5-fluoropyridin-3-yl)-1H-indole-3-carboxamide]: in test [1], the “T-maze % control at 10 mg/kg” value stood at 70%. The “Type I or Type II” value in test [2] is “I”.

For the molecule `CCn1cc(C(=O)Nc2cc(C(F)(F)F)ncn2)c2cc(F)ccc21` [Example 2, 1-ethyl-5-fluoro-N-[6-(trifluoromethyl)pyrimidin-4-yl]-1H-indole-3-carboxamide], the “T-maze % control at 10 mg/kg” value in test [1] stood at 76%. Further, the “Type I or Type II” value in test [2] was “I”.

As to `CCn1cc(C(=O)Nc2ccc(C(F)(F)F)nc2)c2cc(F)ccc21` [Example 3, 1-ethyl-5-fluoro-N-[6-(trifluoromethyl)pyridin-3-yl]-1H-indole-3-carboxamide], in test [1], the “T-maze % control at 10 mg/kg” value stood at 73%.

Turning to `CCn1cc(C(=O)Nc2ccnc(C(F)(F)F)n2)c2cc(F)ccc21` [Example 4, 1-ethyl-5-fluoro-N-[2-(trifluoromethyl)pyrimidin-4-yl]-1H-indole-3-carboxamide], in test [2], the activation at 3 µM turned out to be 30% and the “Type I or Type II” value is recorded as “I”.

Consider `Cn1cc(C(=O)Nc2ccnc(C(F)(F)F)c2)c2cc(F)ccc21` [Example 5, 5-fluoro-1-methyl-N-[2-(trifluoromethyl)pyridin-4-yl]-1H-indole-3-carboxamide], for which, in test [1], the “T-maze % control at 10 mg/kg” value came to 78%. Also, in test [2], the activation at 3 µM stood at 326% and the “Type I or Type II” value is reported as “I”.

In the case of `CC(C)n1cc(C(=O)Nc2cncc(F)c2)c2cc(F)ccc21` [Example 6, 5-fluoro-N-(5-fluoropyridin-3-yl)-1-(propan-2-yl)-1H-indole-3-carboxamide], in test [2], the activation at 3 µM was determined as 374% and the “Type I or Type II” value is “I”.

Turning to `Cc1ccc2c(c1)c(C(=O)Nc1ccnc(C(F)(F)F)c1)cn2C` [Example 7, 1,5-dimethyl-N-[2-(trifluoromethyl)pyridin-4-yl]-1H-indole-3-carboxamide], the “T-maze % control at 10 mg/kg” value in test [1] is 80%. In addition, in test [2], the activation at 3 µM was determined as 663% and the “Type I or Type II” value is listed as “I”.

Turning to `Cc1ccc2c(c1)c(C(=O)Nc1cc(C(F)(F)F)ncn1)cn2C` [Example 8, 1,5-dimethyl-N-[6-(trifluoromethyl)pyrimidin-4-yl]-1H-indole-3-carboxamide], in test [2], the activation at 3 µM stood at 428% and the “Type I or Type II” value is listed as “I”.

As to `Cn1cc(C(=O)Nc2ccnc(C(F)(F)F)c2)c2cc(C(F)(F)F)ccc21` [Example 9, 1-methyl-5-(trifluoromethyl)-N-[2-(trifluoromethyl)pyridin-4-yl]-1H-indole-3-carboxamide], in test [2], the activation at 3 µM amounted to 83% and the “Type I or Type II” value was “I”.

Regarding `Cn1cc(C(=O)Nc2cncc(F)c2)c2cc(C(F)(F)F)ccc21` [Example 10, N-(5-fluoropyridin-3-yl)-1-methyl-5-(trifluoromethyl)-1H-indole-3-carboxamide], in test [2], the activation at 3 µM was found to be 41% and the “Type I or Type II” value is on record as “I”.

Turning to `Cn1cc(-c2ccc3c(c2)c(C(=O)Nc2ccnc(C(F)(F)F)c2)cn3C)cn1` [Example 11, 1-methyl-5-(1-methyl-1H-pyrazol-4-yl)-N-[2-(trifluoromethyl)pyridin-4-yl]-1H-indole-3-carboxamide], in test [2], the activation at 3 µM amounted to 78% and the “Type I or Type II” value was “I”.

For the molecule `O=C(Nc1ccnc(C(F)(F)F)c1)c1cn(CCO)c2ccc(F)cc12` [Example 12, 5-fluoro-1-(2-hydroxyethyl)-N-[2-(trifluoromethyl)pyridin-4-yl]-1H-indole-3-carboxamide], in test [2], the activation at 3 µM was 257% and the “Type I or Type II” value is “I”.
